In PubChem BioAssay (NCI):
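These data come from cells grown in 96-well plates and exposed to compound for 48 hours at five concentrations. GI50: concentration for 50% inhibition of growth. TGI is the concentration that stops growth completely.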

Tests used:
Experiment in all cases: DTP human tumour cell line panel, 48 h
[1] = test system: OVCAR-3 ovarian
[2] = test system: SK-MEL-28 melanoma
[3] = test system: EKVX NSCLC
[4] = test system: COLO 205 colon
[5] = test system: HOP-92 NSCLC
[6] = test system: HS 578T breast
[7] = test system: SK-MEL-5 melanoma
[8] = test system: U251 CNS
[9] = test system: HL-60(TB) leukemia
[10] = test system: NCI-H226 lung
[11] = test system: UO-31 renal
[12] = test system: MOLT-4 leukemia
[13] = test system: BT-549 breast
[14] = test system: TK-10 renal
[15] = test system: MDA-MB-231 breast
[16] = test system: HCT-15 colon
[17] = test system: HCC-2998 colon
[18] = test system: CAKI-1 renal
[19] = test system: IGROV1 ovarian
[20] = test system: SF-268 CNS
[21] = test system: MDA-MB-435
[22] = test system: T-47D breast
[23] = test system: 786-0 renal
[24] = test system: SNB-19 CNS
[25] = test system: UACC-62 melanoma
[26] = test system: A549 NSCLC
[27] = test system: SK-MEL-2 melanoma
[28] = test system: HCT-116 colon
[29] = test system: SNB-75 CNS
[30] = test system: MCF7 breast
[31] = test system: A498 renal
[32] = test system: MALME-3M melanoma
[33] = test system: LOX IMVI melanoma
[34] = test system: NCI-H460 lung
[35] = test system: RXF 393 renal
[36] = test system: SF-295 CNS
[37] = test system: SF-539 CNS
[38] = test system: OVCAR-4 ovarian
[39] = test system: SN12C renal
[40] = test system: SW-620 colon
[41] = test system: HOP-62 NSCLC
[42] = test system: M14 melanoma
[43] = test system: DU-145 prostate
[44] = test system: KM12 colon
[45] = test system: HT29 colon
[46] = test system: UACC-257 melanoma
[47] = test system: OVCAR-5 ovarian
[48] = test system: PC-3 prostate
[49] = test system: ACHN renal
[50] = test system: NCI-H522 lung
[51] = test system: NCI-H23 lung
[52] = test system: K-562 leukemia
[53] = test system: RPMI-8226 leukemia
[54] = test system: OVCAR-8 ovarian
[55] = test system: NCI/ADR-RES ovarian
[56] = test system: CCRF-CEM leukemia
[57] = test system: SK-OV-3 ovarian
[58] = test system: SR leukemia

SMILES: COc1ccc2nc(NCCCNCCO)c3sc4ccc(F)cc4c(=O)c3c2c1
- GI50 [1]: 1.8 µM
- TGI [1]: 3.38 µM
- GI50 [2]: 1.78 µM
- TGI [2]: 3.21 µM
- GI50 [3]: 1.45 µM
- TGI [3]: 2.94 µM
- GI50 [4]: 1.8 µM
- TGI [4]: 3.77 µM
- GI50 [5]: 1.1 µM
- TGI [5]: 2.45 µM
- GI50 [6]: 1.6 µM
- TGI [6]: 3.57 µM
- GI50 [7]: 1.73 µM
- TGI [7]: 3.14 µM
- GI50 [8]: 1.62 µM
- TGI [8]: 3.38 µM
- GI50 [9]: 1.92 µM
- TGI [9]: 3.87 µM
- GI50 [10]: 1.74 µM
- TGI [10]: 3.49 µM
- GI50 [11]: 1.46 µM
- TGI [11]: 2.8 µM
- GI50 [12]: 1.85 µM
- TGI [12]: 3.97 µM
- GI50 [13]: 12.8 µM
- TGI [13]: 31.7 µM
- GI50 [14]: 1.72 µM
- TGI [14]: 3.3 µM
- GI50 [15]: 1.43 µM
- TGI [15]: 2.84 µM
- GI50 [16]: 1.28 µM
- TGI [16]: 2.64 µM
- GI50 [17]: 1.76 µM
- TGI [17]: 3.61 µM
- GI50 [18]: 1.58 µM
- TGI [18]: 2.98 µM
- GI50 [19]: 1.25 µM
- TGI [19]: 2.63 µM
- GI50 [20]: 1.45 µM
- TGI [20]: 3.15 µM
- GI50 [21]: 1.66 µM
- TGI [21]: 3.1 µM
- GI50 [22]: 1.68 µM
- TGI [22]: 3.93 µM
- GI50 [23]: 1.38 µM
- TGI [23]: 2.82 µM
- GI50 [24]: 1.7 µM
- TGI [24]: 3.2 µM
- GI50 [25]: 1.76 µM
- TGI [25]: 3.29 µM
- GI50 [26]: 1.6 µM
- TGI [26]: 3.64 µM
- GI50 [27]: 1.92 µM
- TGI [27]: 3.95 µM
- GI50 [28]: 1.47 µM
- TGI [28]: 2.86 µM
- GI50 [29]: 1.55 µM
- TGI [29]: 3.05 µM
- GI50 [30]: 1.79 µM
- TGI [30]: 3.53 µM
- GI50 [31]: 1.53 µM
- TGI [31]: 2.98 µM
- GI50 [32]: 1.69 µM
- TGI [32]: 3.23 µM
- GI50 [33]: 1.48 µM
- TGI [33]: 2.9 µM
- GI50 [34]: 1.53 µM
- TGI [34]: 3.02 µM
- GI50 [35]: 1.26 µM
- TGI [35]: 2.61 µM
- GI50 [36]: 1.73 µM
- TGI [36]: 3.22 µM
- GI50 [37]: 1.71 µM
- TGI [37]: 3.18 µM
- GI50 [38]: 1.76 µM
- TGI [38]: 3.43 µM
- GI50 [39]: 1.56 µM
- TGI [39]: 3.03 µM
- GI50 [40]: 1.53 µM
- TGI [40]: 3.04 µM
- GI50 [41]: 1.62 µM
- TGI [41]: 3.26 µM
- GI50 [42]: 1.85 µM
- TGI [42]: 3.48 µM
- GI50 [43]: 1.6 µM
- TGI [43]: 3.04 µM
- GI50 [44]: 1.81 µM
- TGI [44]: 3.52 µM
- GI50 [45]: 1.58 µM
- TGI [45]: 3.23 µM
- GI50 [46]: 1.89 µM
- TGI [46]: 4.04 µM
- GI50 [47]: 1.5 µM
- TGI [47]: 2.87 µM
- GI50 [48]: 1.56 µM
- TGI [48]: 3.04 µM
- GI50 [49]: 1.63 µM
- TGI [49]: 2.99 µM
- GI50 [50]: 1.77 µM
- TGI [50]: 3.55 µM
- GI50 [51]: 1.73 µM
- TGI [51]: 3.27 µM

SMILES: COc1cc(NN=C(c2ccc(O)cc2)c2ccc(O)cc2)c([N+](=O)[O-])cc1[N+](=O)[O-]
- GI50 [1]: 1.21 µM
- TGI [1]: 14.8 µM
- GI50 [2]: 15.3 µM
- TGI [2]: 33.9 µM
- GI50 [3]: 14.4 µM
- TGI [3]: 28.3 µM
- GI50 [52]: 3.92 µM
- TGI [52]: > 100 µM
- GI50 [4]: 11.2 µM
- TGI [4]: 23.2 µM
- GI50 [5]: 12.1 µM
- TGI [5]: 31.6 µM
- GI50 [53]: 1.5 µM
- TGI [53]: > 100 µM
- GI50 [7]: 6.24 µM
- TGI [7]: 20.6 µM
- GI50 [8]: 7.79 µM
- TGI [8]: 20.6 µM
- GI50 [9]: 22 µM
- TGI [9]: > 100 µM
- GI50 [10]: 23.6 µM
- TGI [10]: 71.6 µM
- GI50 [11]: 10.4 µM
- TGI [11]: 23.9 µM
- GI50 [12]: 6.52 µM
- TGI [12]: > 100 µM
- GI50 [13]: 14 µM
- TGI [13]: 30.2 µM
- GI50 [14]: 4.69 µM
- TGI [14]: 19.9 µM
- GI50 [15]: 11.4 µM
- TGI [15]: 25.5 µM
- GI50 [16]: 5.75 µM
- TGI [16]: 20.1 µM
- GI50 [17]: 14.8 µM
- TGI [17]: 29.8 µM
- GI50 [18]: 13.8 µM
- TGI [18]: 26.7 µM
- GI50 [19]: 12.7 µM
- TGI [19]: 32.8 µM
- GI50 [20]: 6.64 µM
- TGI [20]: 25.5 µM
- GI50 [21]: 10.4 µM
- TGI [21]: 22.6 µM
- GI50 [22]: 1.62 µM
- TGI [22]: 19.2 µM
- GI50 [23]: 11.7 µM
- TGI [23]: 24.8 µM
- GI50 [24]: 10.7 µM
- TGI [24]: 23.3 µM
- GI50 [25]: 10.6 µM
- TGI [25]: 22.6 µM
- GI50 [26]: 7.59 µM
- TGI [26]: 33.7 µM
- GI50 [27]: 14.2 µM
- TGI [27]: 30.5 µM
- GI50 [28]: 9.33 µM
- TGI [28]: 21.8 µM
- GI50 [29]: 14.7 µM
- TGI [29]: 29.6 µM
- GI50 [54]: 4.91 µM
- TGI [54]: 27.5 µM
- GI50 [30]: 5.71 µM
- TGI [30]: 21.9 µM
- GI50 [55]: 13.1 µM
- TGI [55]: 51.5 µM
- GI50 [31]: 13.2 µM
- TGI [31]: 35.2 µM
- GI50 [32]: 17.2 µM
- TGI [32]: 31.6 µM
- GI50 [33]: 3.76 µM
- TGI [33]: 18.6 µM
- GI50 [34]: 3.76 µM
- TGI [34]: 21.2 µM
- GI50 [35]: 8.05 µM
- TGI [35]: 22.9 µM
- GI50 [36]: 1.73 µM
- TGI [36]: 16.5 µM
- GI50 [37]: 13 µM
- TGI [37]: 27.7 µM
- GI50 [38]: 12.2 µM
- TGI [38]: 27 µM
- GI50 [39]: 11.2 µM
- TGI [39]: 23.3 µM
- GI50 [40]: 15.2 µM
- TGI [40]: 33.6 µM
- GI50 [41]: 5.29 µM
- TGI [41]: 20.3 µM
- GI50 [42]: 11.4 µM
- TGI [42]: 24.7 µM
- GI50 [43]: 12.8 µM
- TGI [43]: 50.8 µM
- GI50 [44]: 4.86 µM
- TGI [44]: 25.7 µM
- GI50 [56]: 1.37 µM
- TGI [56]: > 100 µM
- GI50 [45]: 10.9 µM
- TGI [45]: 25.6 µM
- GI50 [46]: 15.5 µM
- TGI [46]: 29.3 µM
- GI50 [57]: 16.6 µM
- TGI [57]: 30.2 µM
- GI50 [58]: 10.9 µM
- TGI [58]: > 100 µM
- GI50 [47]: 18.8 µM
- TGI [47]: 40.1 µM
- GI50 [48]: 14.6 µM
- TGI [48]: > 100 µM
- GI50 [49]: 5.23 µM
- TGI [49]: 20.3 µM
- GI50 [50]: 8.86 µM
- TGI [50]: 29.9 µM
- GI50 [51]: 13.5 µM
- TGI [51]: 34.5 µM
